Measurements reported in patent US20230225991A1, “COMPOUNDS FOR USE IN THE TREATMENT OF ACUTE INTERMITTENT PORPHYRIA” (VESTLANDETS INNOVASJONSSELSKAP AS, priority 2019, published 2023).
In brackets after ≈: the same amount, converted by molar mass.

Assays:
HMBS [1] = target: T1, HMBS (Homo sapiens, UniProt P08397); test: Octet RED KD determination (Example 21); type: binding; parameters: Full-length HMBS was cloned into pET-28a(+)-TEV vector and transformed into BL21 (DE3) cells for expression; 6xHis (N, cleaved yes); TEV protease cleavage site (N, cleaved yes); made in house; host or cells: E. coli BL21 (DE3); conditions: steady state analysis, 6.25 to 500 μM, PBS-P+ 5% DMSO
T1 sequence (P08397 1-361): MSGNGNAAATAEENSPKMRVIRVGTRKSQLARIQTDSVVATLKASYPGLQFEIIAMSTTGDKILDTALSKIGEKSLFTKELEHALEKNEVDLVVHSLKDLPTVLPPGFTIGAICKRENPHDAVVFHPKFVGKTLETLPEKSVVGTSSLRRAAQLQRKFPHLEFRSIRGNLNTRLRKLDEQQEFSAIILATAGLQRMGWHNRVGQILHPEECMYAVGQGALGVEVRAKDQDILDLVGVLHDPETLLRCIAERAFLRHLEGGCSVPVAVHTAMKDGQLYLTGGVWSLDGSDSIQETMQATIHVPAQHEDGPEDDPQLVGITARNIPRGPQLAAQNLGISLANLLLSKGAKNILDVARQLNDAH
Procedure: Octet RED (Forte Bio) was used for screening binding and determining the KD values of various compounds. OctetRED is based on the technique called Bio-layer interferometry (BLI). It measures changes in an interference pattern generated from visible light reflected from an optical layer and a biolayer containing proteins of interest. In the assay the target protein is biotinylated and coupled as a layer on the optic probe (Super Strepavidin). The concentration series was from 6.25 to 500 μM.
For the analysis method of KD determination, steady state analysis was used, where the response from steady state of the association phase was used for determining the binding curve for the analyte. Buffer for the analysis was selected to PBS-P+5% DMSO.

WT-HMBS [2] = target: T2, WT-HMBS (Homo sapiens, UniProt P08397); test: Limited proteolysis by trypsin; type: biochemical; conditions: Table 3; 84 μM compound, 2% DMSO
T2 construct: Full-length HMBS was cloned into pET-28a(+)-TEV vector and transformed into BL21 (DE3) cells for expression; 6xHis (N, cleaved yes); TEV protease cleavage site (N, cleaved yes); made in house; host or cells: E. coli BL21 (DE3)
T2 sequence (P08397 1-361): T1 sequence (P08397 1-361)
Procedure: Limited proteolysis by trypsin was performed at 37° C. in 20 mM HEPES, 150 mM NaCl, 2% DMSO, pH 8.2, with 0.15 μg/μl HMBS in the absence (DMSO-control) or presence of 84 μM compound and 2% DMSO. The proteolysis was initiated by adding 1 μg/ml TPCK-treated trypsin (Sigma-Aldrich). After 30 min, aliquots were removed and transferred to Laemmli loading buffer containing 2 μg/ml soybean trypsin inhibitor. Samples resolved by electrophoresis with 10% Mini-Protean® TGX™ gels (Bio-Rad Laboratories, Inc.) were analyzed using the Image Lab™ software (Bio-Rad Laboratories, Inc.). The unpaired t-test (two tailed) was performed using GraphPad Prism.
Limited tryptic proteolysis was also applied to compound BG-1. Proteolysis of WT-HMBS provided three major bands with relative content 34.5±0.3%, 14.7±0.8% and 50.9±0.5%, corresponding to remaining full-length HMBS (˜42.5 kDa), and two fragments of ˜41.0 kDa and ˜31.5 kDa, respectively (FIG. 1). […] The effect of this compound at 84 μM on the steady-state enzyme kinetics of HMBS was then calculated (Table 2).

WT-HMBS [3] = target: T2, WT-HMBS; test: DSF thermal upshift (ΔTm) of HMBS; type: binding; conditions: Table 3, average compound concentration 122 μM (2% DMSO)
Procedure: Compounds BG-2, BG-3 and BG-4 were tested on recombinant WT-HMBS using DSF and tryptic proteolysis.

HMBS [4] = target: T1, HMBS; test: Activity measurements in vitro (Example 23, TECAN plate reader); type: biochemical; conditions: 5 and 50 μM compound in 2.5% DMSO, 30 min at 37° C., compared to HMBS with DMSO only
Procedure: Activity measurements were carried out using TECAN plate reader for absorbance measurements. Activity measurements were based on measuring the light absorbance at 405 nm for determining the concentration of formed product, preuroporphyrinogen. Standard curve for measurements was measured using absorbance of known concentrations for Uroporphyrin I dihydrochloride, the cyclic derivative of preuroporphyrinogen. Two concentrations of the compound of Example 14, i.e. 5 and 50 μM in 2.5% DMSO were used. Protein was incubated 30 min in 37° C. with the compound, and mixed with MIX-buffer (50 mM HEPES pH 8, 2.5% DMSO) on Corning 96 well plate (clear bottom, half area, black). The solutions were pre-warmed to 37° C. prior to reaction. Reaction was started by adding PBG and after 5 min the reaction was stopped by adding the STOP solution (5 M HCl and 0.1% p-Benzoquinone mixed 1:1). Wells were covered and protected from light during the whole reaction.

[5] = Solubility in DMSO and in buffer (Table 5); type: physicochemical; conditions: for Soluble in DMSO (100%): 100% DMSO; for solubility: aqueous buffer, numeric values; for solubility / Solubility in buffer: buffer; for Solubility in buffer: stated in words
WT-HMBS [6] = target: T2, WT-HMBS; test: Octet RED96 KD determination (Example 22); type: binding; conditions: PBS-P+ 5% DMSO; for Binding: Octet RED96, 3.1 to 150 μM; for Kd: Octet RED96, steady state, sigmoidal fitting, 3.1 to 150 μM
Procedure: Octet RED96 (Forte Bio) was used for screening binding and determining the KD values for certain compounds. In the assay the target protein (WT-HMBS) was biotinylated and coupled as a layer on the optic probe. The concentration series for the tested compounds were from 3.1 to 150 μM, dissolved in PBS-P+5% DMSO.
For the analysis method of KD determination, steady state analysis was used in which the response from steady-state of the association phase was used for determining the binding curve for the analyte. KD values were calculated using sigmoidal fitting. The buffer for the analysis was selected to PBS-P+5% DMSO.

With `O=C(c1ccc(Br)cc1)c1ccc(Cl)c([N+](=O)[O-])c1` the KD (HMBS [1]) was “mM range (no saturation with 500 μM)”.

In the case of `O=Cc1cc(Cc2ccccc2)cc([N+](=O)[O-])c1O` [BG-3], the “Protection against tryptic proteolysis” value (WT-HMBS [2]) is reported as “+/− (+/−, ±2%)” and the ΔTm at 122 µM (WT-HMBS [3]) is reported as 6.6 °C.

With `OCc1cc(Cc2ccccc2Cl)cc(C(F)(F)F)c1O` [Example 14, 4-(2-chlorobenzyl)-2-(hydroxymethyl)-6-(trifluoromethyl) phenol] the “HMBS activity in presence of compound” value (HMBS [4]) was “activation of HMBS”.

`O=Cc1cc(Cc2ccccc2Cl)ccc1O` gave a Kd (HMBS [1]) of 190 µM.

For `O=C(c1ccc(OC(F)(F)F)cc1)c1ccc(Cl)c(C(F)(F)F)c1`, the “Soluble in DMSO (100%)” value [5] was “Yes” and the solubility [5] was 52 µM (≈ 19.2 µg/mL).

With `O=C(c1ccccc1)c1ccc(Cl)c([N+](=O)[O-])c1` [drawing 44] the KD (HMBS [1]) was “mM range (no”.

For `Cc1cccc(C)c1C(=O)c1ccc(Cl)c([N+](=O)[O-])c1`, the KD (HMBS [1]) was “mM range (no saturation with 500 μM)”.

For `Cc1ccc(C(=O)c2ccc(Cl)cc2)cc1[N+](=O)[O-]`, the Kd (HMBS [1]) was 7 µM.

`O=Cc1cc(Cc2ccccc2Cl)cc([N+](=O)[O-])c1O` [drawing 43] showed a Kd (HMBS [1]) of 90 µM.

Molecule `O=C(c1ccc(Cl)c(Cl)c1)c1ccc(Cl)c([N+](=O)[O-])c1` has a Kd (HMBS [1]) of 140 µM.

For `O=C(c1ccncc1)c1ccc(Cl)c([N+](=O)[O-])c1`, the KD (HMBS [1]) was “mM range (no saturation with 500 μM)”.

`O=C(c1ccc(OCCN2CCCC2)cc1)c1ccc(N2CCCC2)c([N+](=O)[O-])c1` gave a Kd (HMBS [1]) of over 200 µM.

With `CN(C(=O)c1ccc(Cl)c([N+](=O)[O-])c1)c1ccccc1` the KD (HMBS [1]) was “mM range (no saturation with 500 μM)”.

Molecule `COc1ccc(C(O)c2ccc(Cl)c([N+](=O)[O-])c2)cc1` (stereo not drawn) has a Kd (HMBS [1]) of over 200 µM.

In the case of `O=C(c1ccc(Cl)c([N+](=O)[O-])c1)c1ccc(Cl)c([N+](=O)[O-])c1`, the KD (HMBS [1]) is reported as “mM range (no saturation with 500 μM)”.

With `OCc1cc(Cc2ccccc2Cl)cc(C(F)(F)F)c1O` [drawing 62] the Binding (WT-HMBS [6]) was “Yes”, the Kd (WT-HMBS [6]) was 90 µM and the “Soluble in DMSO (100%)” value [5] was “Yes”. For the same molecule, the Solubility in buffer [5] was “Yes”.

With `O=[N+]([O-])c1cc(Cc2ccccc2Cl)cc(CO)c1O` [BG-4] the “Protection against tryptic proteolysis” value (WT-HMBS [2]) was “+/− (+/−, ±2%)” and the ΔTm at 122 µM (WT-HMBS [3]) was 4.7 °C.

In the case of `O=Cc1cc(Cc2ccccc2Cl)cc([N+](=O)[O-])c1O` [drawing 59], the Binding (WT-HMBS [6]) is reported as “Yes”, the Kd (WT-HMBS [6]) is reported as 83 µM and the “Soluble in DMSO (100%)” value [5] is reported as “Yes”. The solubility [5] was 384 µM (≈ 112 µg/mL).

With `O=Cc1cc(Cc2ccccc2Cl)cc(C(F)(F)F)c1O` the Binding (WT-HMBS [6]) was “Yes”, the Kd (WT-HMBS [6]) was 9.3 µM and the “Soluble in DMSO (100%)” value [5] was “Yes”. The Solubility in buffer [5] was “Yes”.

In the case of `COc1ccc(C(=O)c2ccc(Cl)c([N+](=O)[O-])c2)cc1`, the Kd (HMBS [1]) is reported as 300 µM.

Molecule `O=C(c1ccc(Cl)cc1)c1cc([N+](=O)[O-])ccc1Cl` has a Kd (HMBS [1]) of 110 µM.
